Reference: patent US11498896B2 (The Broad Institute, Inc., priority 2014, dated 2022)

Tests used:
D2 receptor = D2 receptor (Homo sapiens (Human), UniProt P14416); experiment: D2 radioligand binding assay
striatal D2/D3 = experiment: Positron emission tomography with [11C]raclopride; format: in vivo, Male Sprague-Dawley rats; settings: scans 1 hour after administration; in comparison with clozapine
Protocol: Positron Emission Tomography Studies on Rodents
All animal procedures were performed in accordance with the National Institutes of Health Guide for the Care and Use of Laboratory Animals and were approved by the Massachusetts General Hospital Institutional Animal Care and Use Facility. Male Sprague-Dawley rats (8-14 weeks old, Charles River Labs) were used for the study with animals pair-housed on a diurnal 12:12 light/dark cycle with free access to food and water. […] Respiration of each animal was monitored for the duration of the procedure.
Carbon 11-labeled raclopride ([^11C]RAC) was synthesized from the O-desmethyl RAC precursor and [11C] methyl iodide and subsequently purified by high-performance liquid chromatography as previously described (Farde L, et al. (1985) PNAS, USA 82(11):3863-3867). […] ROI dimensions, placement and striatal D2/D3 binding potential (BPND) were evaluated by graphical analysis using Logan distribution volume ratio (DVR) linearization as previously described (BPND.=DVR-1; Alexoff D, et al. (2002) J Nuc Med 44(5): 815-822; Logan J, et al. (1996) J Cerebral Blood Flow and Metabolism 16(5):[…]).

[1] = system: D2R-mediated GSK3 signaling; experiment: D2R-mediated GSK3 signaling in HEK293T cells; format: cell-based; settings: HEK293T cells expressing both D2R and DISC1; 10 μM and 30 μM
Text: Example 90 blocks β-arrestin signaling downstream of D2R and leads to modulation of GSK3 signaling.

human D2R/β-arrestin [2] = molecular target: T1, human D2R/β-arrestin (Homo sapiens (Human), UniProt P14416); experiment: cell-based; settings: β-arrestin Antagonist, CHO-K1 cells expressing human D2R/β-arrestin; antagonist mode, quinpirole 130 nM
Brain protein binding = format: in vitro ADME
human D2R/β-arrestin [3] = molecular target: T1, human D2R/β-arrestin; experiment: Gi/cAMP agonist assay (Lance Ultra cAMP, forskolin); format: cell-based; settings: CHO-K1 cells expressing human D2R/β-arrestin; agonist mode, 2.5 μM forskolin
Protocol: Eu-cAMP tracer solution (10 μl, PerkinElmer, 360 μl of Tracer in 17.64 ml kit buffer) and ULight-anti-cAMP solution (10 μl, 120 μL antibody in 17.88 ml kit buffer) was then added to each well.

mice [4] = experiment: Rotarod performance; format: in vivo; settings: 30 mg/kg IP in mice
Protocol: In the test, mice are placed on a horizontally oriented, rotating cylinder (rod) suspended above a cage floor, which is low enough not to injure the animal, but high enough to induce avoidance of fall. The mice naturally try to stay on the rotating cylinder, or rotarod, and avoid falling to the ground. Mice are administered clozaril at 3 mg/kg (test group); or a compound of Formula (I) (either 10 mg/kg or 30 mg/kg or vehicle). The mice have an average weight of 20 grams (as do the mice in all examples herein). The length of time that a given animal stays on this rotating rod is a measure of the animal's balance, coordination, physical condition, and motor-planning. The speed of the rotarod is mechanically driven, and is held constant.

mice [5] = experiment: Amphetamine induced hyperactivity (AIH); format: in vivo; settings: in comparison with vehicle
Protocol: Amphetamine Induced Hyperactivity Studies
Amphetamine-induced hyperactivity (AIH) was examined in eight identical open-field chambers (16.5″×16″×12″; AccuScan Instruments, Columbus, Ohio). Activity was detected by infrared beam breaks and recorded automatically by VersaMax software (AccuScan). Daily sessions were automatically binned in 5 minute intervals (VersaDat; AccuSacn) for statistical analysis. AIH was run over three consecutive days as follows:
Day 1: Mice were acclimated to the injection procedure by injecting 30 minutes prior to being placed in the chambers (to match the timing of day 3 compound administration). Mice were then placed into the open-field for 20 minutes and then removed for a saline injection (to match the timing of amphetamine administration on day 3). Mice were placed back into the open-field for an additional 30 minutes, at which point the mice were returned to their home cage.
Day 2 was run identically to Day 1, with the exception that the second day lasted for one hour (20 minutes→injection→40 minutes).
Day 3 was the amphetamine challenge day. Mice were pre-treated with D2 antagonist compounds (compound of Example 90) 30 minutes prior to being placed in the open field. After 20 minutes, mice were removed and challenged with amphetamine, following protocols known to one skilled in the art, for example Jones C. […]

human D2R/β-arrestin [6] = molecular target: T1, human D2R/β-arrestin; experiment: cell-based; settings: cAMP Antagonist, CHO-K1 cells expressing human D2R/β-arrestin; antagonist mode, 2.5 μM forskolin and 2.7 nM quinpirole

T1 sequence (P14416 whole entry): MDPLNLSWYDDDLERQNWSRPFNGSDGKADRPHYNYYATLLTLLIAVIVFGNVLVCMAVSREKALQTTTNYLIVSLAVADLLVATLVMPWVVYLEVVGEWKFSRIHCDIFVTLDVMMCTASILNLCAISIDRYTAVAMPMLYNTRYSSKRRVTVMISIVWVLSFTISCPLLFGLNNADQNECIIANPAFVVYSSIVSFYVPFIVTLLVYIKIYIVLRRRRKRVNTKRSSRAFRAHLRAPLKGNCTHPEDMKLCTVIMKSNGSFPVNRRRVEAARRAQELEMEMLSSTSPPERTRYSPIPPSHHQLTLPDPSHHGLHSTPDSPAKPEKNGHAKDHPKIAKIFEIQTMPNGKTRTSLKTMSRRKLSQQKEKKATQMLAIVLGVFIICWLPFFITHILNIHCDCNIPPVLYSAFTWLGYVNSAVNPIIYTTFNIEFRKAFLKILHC
D2 receptor, sequence (P14416 whole entry): as above

In the case of CC1(Oc2ccc(Cl)cc2)CCN(CCOc2ccccc2C(F)(F)F)CC1 [Compound 90, 4-(4-Chlorophenoxy)-4-methyl-1-(2-(2-(trifluoromethyl)phenoxy)ethyl) piperidine], the Ki (D2 receptor) is reported as 100 to 1000 nM, the “occupancy in the striatum ([11C]Raclopride PET)” value (striatal D2/D3) is reported as “continued high occupancy in the striatum” and the “block of D2R activation-induced reduction of GSK3-α/β (Ser 21/9) phosphorylation” value [1] is reported as “blocked”. The IC50 (human D2R/β-arrestin [2]) was 100 to 1000 nM, the fraction unbound (Brain protein binding) was less than 0.001 and the EC50 (human D2R/β-arrestin [3]) was less than 100 nM. For the same molecule, the “motoric side effects (rotarod performance)” value (mice [4]) was “does not induce motoric side effects”, the “attenuation of amphetamine induced hyperactivity (AIH)” value (mice [5]) was “dose-dependently attenuates AIH in mice and shows efficacy at 30 mg/kg” and the IC50 (human D2R/β-arrestin [6]) was greater than 30000 nM.
